From patent US5045458A, “Antibiotics PB-6042S” (Shionogi & Co., Ltd., priority 1988, dated 1991)
≈ marks a conversion by molar mass, not a printed value. Like-named read-outs stand apart in the source and are kept apart here.

Experiments:
[1] = test system: P. asaccharolyticus ATCC14963; test: MIC against anaerobic bacteria; format: cell-based; settings: Peptoniphilus asaccharolyticus, ATCC14963
P. anaerobius B-38 = test: MIC against anaerobic bacteria; format: cell-based; settings: Peptostreptococcus anaerobius, B38
P. prevotii ATCC9321 = test: MIC against anaerobic bacteria; format: cell-based; settings: Anaerococcus prevotii, ATCC9321
P. micros VPI5464-1 = test: MIC against anaerobic bacteria; format: cell-based; settings: Parvimonas micra, VPI54641
[2] = test system: S. constellatus ATCC27823; test: MIC against anaerobic bacteria; format: cell-based; settings: Streptococcus constellatus
E. lentum II-1 = test: MIC against anaerobic bacteria; format: cell-based; settings: Eggerthella lenta, II1
E. limosum ATCC8486 = test: MIC against anaerobic bacteria; format: cell-based; settings: Eubacterium limosum; E. limosum ATCC8486; read-out: MIC
E. aerofaciens ATCC25986 = test: MIC against anaerobic bacteria; format: cell-based; settings: Collinsella aerofaciens, ATCC25986
P. acens ATCC11827 = test: MIC against anaerobic bacteria; format: cell-based
B. adolescentis JCM1250 = test: MIC against anaerobic bacteria; format: cell-based; settings: Bifidobacterium adolescentis, JCM1250
B. bifidum JCM1122 = test: MIC against anaerobic bacteria; format: cell-based; settings: Bifidobacterium bifidum
B. longum ATCC15707 = test: MIC against anaerobic bacteria; format: cell-based; settings: Bifidobacterium longum
L. plantarum JCM1100 = test: MIC against anaerobic bacteria; format: cell-based; settings: Lactiplantibacillus plantarum
L. ruminis ATCC27780 = test: MIC against anaerobic bacteria; format: cell-based; settings: L. ruminis ATCC27780; read-out: MIC
C. perfringens SAKAI = test: microbe, parasite or virus in culture; format: cell-based; settings: Clostridium perfringens
C. perfringens ATCC13124 = test: microbe, parasite or virus in culture; format: cell-based; settings: Clostridium perfringens
C. difficile ATCC17857 = test: MIC against anaerobic bacteria; format: cell-based; settings: Clostridioides difficile
B. fragilis GM7000 = test: MIC against anaerobic bacteria; format: cell-based; settings: Bacteroides fragilis; B. fragilis GM7000; read-out: MIC
B. fragilis ATCC25285 = test: MIC against anaerobic bacteria; format: cell-based; settings: Bacteroides fragilis; B. fragilis ATCC25285; read-out: MIC
[3] = test system: B. thetaiotaomicron WAL3304; test: MIC against anaerobic bacteria; format: cell-based; settings: Bacteroides thetaiotaomicron; B. thetaiotaomicron WAL3304; read-out: MIC
B. vulgatus ATCC29327 = test: MIC against anaerobic bacteria; format: cell-based; settings: Phocaeicola vulgatus; B. vulgatus ATCC29327; read-out: MIC
B. distasonis JU-11-1 = test: MIC against anaerobic bacteria; format: cell-based; settings: Parabacteroides distasonis, JU111; B. distasonis JU-11-1; read-out: MIC
B. ovatus 2505 = test: MIC against anaerobic bacteria; format: cell-based; settings: Bacteroides ovatus; B. ovatus 2505; read-out: MIC
[4] = test system: B. melaninogenicus GAI0413; test: MIC against anaerobic bacteria; format: cell-based
F. varium ATCC8501 = test: MIC against anaerobic bacteria; format: cell-based; settings: Fusobacterium varium
F. necrophorum ATCC25286 = test: MIC against anaerobic bacteria; format: cell-based; settings: Fusobacterium necrophorum
F. nucleatum ATCC25586 = test: MIC against anaerobic bacteria; format: cell-based; settings: Fusobacterium nucleatum
F. mortiferum ATCC9817 = test: MIC against anaerobic bacteria; format: cell-based; settings: Fusobacterium mortiferum
anaerobic bacteria = test: antibacterial activity against anaerobic bacteria (summary); format: cell-based; settings: in words
[5] = filter paper electrophoresis and bioautography (acidic property); format: physicochemical
From the text: Other physicochemical properties of PB-6042s in the form of sodium salt are listed below.

S. aureus FDA JC-1 = test: MIC against aerobic bacteria; settings: Staphylococcus aureus, FDAJC1
S. aureus SR14(R) = test: MIC against aerobic bacteria; settings: Staphylococcus aureus
S. pyogenes C-203 = test: MIC against aerobic bacteria; settings: Streptococcus pyogenes, C203
S. pneumoniae TYPE 1 = test: MIC against aerobic bacteria; settings: Streptococcus pneumoniae, TYPE1
E. coli NIHJ JC-2 = test: MIC against aerobic bacteria; settings: Escherichia coli, NIHJJC2
K. pneumoniae SR1 = test: MIC against aerobic bacteria; settings: Klebsiella pneumoniae
P. vulgaris CN-329 = test: MIC against aerobic bacteria; settings: Proteus vulgaris, CN329
P. aeruginosa A25619 = test: MIC against aerobic bacteria; settings: Pseudomonas aeruginosa

C=C1OC(=O)C(C(=O)CCCCCCCCC)=C1O [PB-6042A]
MIC [1]: 12.5 µg/mL (≈ 46.9 µM) | MIC (P. anaerobius B-38): 3.13 µg/mL (≈ 11.8 µM) | MIC (P. prevotii ATCC9321): 12.5 µg/mL (≈ 46.9 µM) | MIC (P. micros VPI5464-1): 1.56 µg/mL (≈ 5.86 µM) | MIC [2]: 3.13 µg/mL (≈ 11.8 µM) | MIC (E. lentum II-1; E. lentum II-1, read-out: MIC): 6.25 µg/mL (≈ 23.5 µM) | MIC (E. limosum ATCC8486): 6.25 µg/mL (≈ 23.5 µM) | MIC (E. aerofaciens ATCC25986): 12.5 µg/mL (≈ 46.9 µM) | MIC (P. acens ATCC11827): 3.13 µg/mL (≈ 11.8 µM) | MIC (B. adolescentis JCM1250): 12.5 µg/mL (≈ 46.9 µM) | MIC (B. bifidum JCM1122; JCM1122): 12.5 µg/mL (≈ 46.9 µM) | MIC (B. longum ATCC15707; B. longum ATCC15707, read-out: MIC): 6.25 µg/mL (≈ 23.5 µM) | MIC (L. plantarum JCM1100; JCM1100): 12.5 µg/mL (≈ 46.9 µM) | MIC (L. ruminis ATCC27780): 6.25 µg/mL (≈ 23.5 µM) | MIC (C. perfringens SAKAI): 12.5 µg/mL (≈ 46.9 µM) | MIC (C. perfringens ATCC13124): 12.5 µg/mL (≈ 46.9 µM) | MIC (C. difficile ATCC17857): 3.13 µg/mL (≈ 11.8 µM) | MIC (B. fragilis GM7000): 3.13 µg/mL (≈ 11.8 µM) | MIC (B. fragilis ATCC25285): 3.13 µg/mL (≈ 11.8 µM) | MIC [3]: 3.13 µg/mL (≈ 11.8 µM) | MIC (B. vulgatus ATCC29327): 3.13 µg/mL (≈ 11.8 µM) | MIC (B. distasonis JU-11-1): 3.13 µg/mL (≈ 11.8 µM) | MIC (B. ovatus 2505): 3.13 µg/mL (≈ 11.8 µM) | MIC ([4]; B. melaninogenicus GAI0413, read-out: MIC): 6.25 µg/mL (≈ 23.5 µM) | MIC (F. varium ATCC8501): > 100 µg/mL | MIC (F. necrophorum ATCC25286): 6.25 µg/mL (≈ 23.5 µM) | MIC (F. nucleatum ATCC25586): 6.25 µg/mL (≈ 23.5 µM) | MIC (F. mortiferum ATCC9817; ATCC9817): 12.5 µg/mL (≈ 46.9 µM) | growth inhibition of anaerobic bacteria (anaerobic bacteria): inhibit the growth of anaerobic bacteria, selectively | acidic property [5]: acidic substances | MIC (S. aureus FDA JC-1): 25 µg/mL (≈ 93.9 µM) | MIC (S. aureus SR14(R)): > 100 µg/mL | MIC (S. pyogenes C-203): 25 µg/mL (≈ 93.9 µM) | MIC (S. pneumoniae TYPE 1): 25 µg/mL (≈ 93.9 µM) | MIC (E. coli NIHJ JC-2): > 100 µg/mL | MIC (K. pneumoniae SR1): > 100 µg/mL | MIC (P. vulgaris CN-329): > 100 µg/mL | MIC (P. aeruginosa A25619): > 100 µg/mL

C=C1OC(=O)C(C(=O)CCC/C=C\CCCCCC)=C1O [PB-6042B]
MIC [1]: 6.25 µg/mL (≈ 21.4 µM) | MIC (P. anaerobius B-38): 3.13 µg/mL (≈ 10.7 µM) | MIC (P. prevotii ATCC9321): 6.25 µg/mL (≈ 21.4 µM) | MIC (P. micros VPI5464-1): 1.56 µg/mL (≈ 5.34 µM) | MIC [2]: 1.56 µg/mL (≈ 5.34 µM) | MIC (E. lentum II-1): 6.25 µg/mL (≈ 21.4 µM) | MIC (E. limosum ATCC8486): 3.13 µg/mL (≈ 10.7 µM) | MIC (E. aerofaciens ATCC25986): 6.25 µg/mL (≈ 21.4 µM) | MIC (P. acens ATCC11827): 3.13 µg/mL (≈ 10.7 µM) | MIC (B. adolescentis JCM1250): 6.25 µg/mL (≈ 21.4 µM) | MIC (B. bifidum JCM1122; B. bifidum JCM1122, read-out: MIC): 12.5 µg/mL (≈ 42.8 µM) | MIC (B. longum ATCC15707; ATCC15707): 6.25 µg/mL (≈ 21.4 µM) | MIC (L. plantarum JCM1100; L. plantarum JCM1100, read-out: MIC): 12.5 µg/mL (≈ 42.8 µM) | MIC (L. ruminis ATCC27780): 3.13 µg/mL (≈ 10.7 µM) | MIC (C. perfringens SAKAI): 6.25 µg/mL (≈ 21.4 µM) | MIC (C. perfringens ATCC13124): 6.25 µg/mL (≈ 21.4 µM) | MIC (C. difficile ATCC17857): 1.56 µg/mL (≈ 5.34 µM) | MIC (B. fragilis GM7000): 3.13 µg/mL (≈ 10.7 µM) | MIC (B. fragilis ATCC25285): 3.13 µg/mL (≈ 10.7 µM) | MIC [3]: 3.13 µg/mL (≈ 10.7 µM) | MIC (B. vulgatus ATCC29327): 3.13 µg/mL (≈ 10.7 µM) | MIC (B. distasonis JU-11-1): 3.13 µg/mL (≈ 10.7 µM) | MIC (B. ovatus 2505): 3.13 µg/mL (≈ 10.7 µM) | MIC ([4]; GAI0413): 6.25 µg/mL (≈ 21.4 µM) | MIC (F. varium ATCC8501): > 100 µg/mL | MIC (F. necrophorum ATCC25286): 12.5 µg/mL (≈ 42.8 µM) | MIC (F. nucleatum ATCC25586): 12.5 µg/mL (≈ 42.8 µM) | MIC (F. mortiferum ATCC9817; F. mortiferum ATCC9817, read-out: MIC): 25 µg/mL (≈ 85.5 µM) | growth inhibition of anaerobic bacteria (anaerobic bacteria): inhibit the growth of anaerobic bacteria, selectively | acidic property [5]: acidic substances | MIC (S. aureus FDA JC-1): 12.5 µg/mL (≈ 42.8 µM) | MIC (S. aureus SR14(R)): 12.5 µg/mL (≈ 42.8 µM) | MIC (S. pyogenes C-203): 12.5 µg/mL (≈ 42.8 µM) | MIC (S. pneumoniae TYPE 1): 12.5 µg/mL (≈ 42.8 µM) | MIC (E. coli NIHJ JC-2): > 100 µg/mL | MIC (K. pneumoniae SR1): > 100 µg/mL | MIC (P. vulgaris CN-329): > 100 µg/mL | MIC (P. aeruginosa A25619): > 100 µg/mL
